The subject of data set [1] is human elastin promoter. Kind of data set: UVA/8-MOP (PUVA)-induced promoter activation (CAT activity) in fibroblast cultures from transgenic mice. Type of data set: cell-based. How it is done:
Because a response to UVA alone in vitro is not measurable and the in vivo response is relatively small, 8-methoxypsoralen (8-MOP) was added to the system to enhance the promoter response to UVA.
In these experiments, control cells received no UVA or 8-MOP. UVA controls received either 0.5, 0.75 or 1.0 J/cm^2 of UVA without prior incubation with 8-MOP. 8-MOP controls received 1 µg/ml of 8-MOP but no UVA. Tempol controls received 100 mM Tempol and no UVA or 8-MOP. PUVA-treated cells were preincubated with 1.0 µg/ml of 8-MOP in PBS and then exposed to 0.5, 0.75 or 1.0 J/cm^2. Tempol treated cells were pretreated with 100 mM Tempol 12.5 minutes prior to UVA exposure. 8-MOP was also added to these cells at the same time as the Tempol.
The addition of Tempol to the cultures reduced the PUVA-induced increase in CAT activity to 1.5-, 1.2- and 2.0-fold that of controls, respectively, thus almost completely eliminating the PUVA-induced increase in CAT activity.
Fibroblast cultures were established from the skin of transgenic mice by explanting tissue specimens onto plastic tissue culture dishes and allowing cells to migrate to the surrounding area. The primary cultures were maintained in Dulbecco's modified Eagle's medium supplemented with 10% fetal calf serum, 2 mM L-glutamine and antibiotics, at 37°C. The primary cell cultures were passaged by trypsinization, and the subcultures in passages three or four were utilized for UVB treatment. After UV exposure, the cells were incubated in tissue culture medium for 24 hours, and then harvested for determination of CAT activity.
To measure the expression of the human elastin promoter/CAT reporter gene construct in the skin of transgenic mice and in fibroblast cultures established from these animals, CAT activity was determined. For extraction of the CAT from skin, the specimens were homogenized in 0.25 Tris-HCl, pH 7.5, using a tissue homogenizer (Brinkmann Instruments, Inc. Westbury, NY). The homogenates were centrifuged at 10,000 X g for 15 minutes at 4°C and the protein concentration in the supernatant determined by a commercial protein assay kit (Bio-Rad Laboratories, Richmond, CA). Aliquots of the supernatant containing 100 µg of protein were used for assay of CAT activity by incubation with [^14C] chloramphenicol in accordance with well-known procedures. The acetylated and non-acetylated forms of radioactive chloramphenicol were separated by thin-layer chromatography and CAT activity was determined by the radioactivity in the acetylated forms as a percent of the total radioactivity in each sample.
Irradiation with UVA was performed using a closely spaced array of seven Sylvania FR40T12 PUVA lamps filtered through window glass of 2 mm thickness to remove wavelengths below 320 nm. The energy output at 38 cm from the array was measured with a Solar Light Model 3D UVA and UVB detector (Solar Light Company, Philadelphia, PA). The output of the lamps filtered through the window glass was 2.02 mW/cm^2, with no detectable UVB.

A short description of another data set: Absorption spectrum. Type of data set: physicochemical.
For data set [2], the system named is human elastin promoter. Kind of data set: UVB-induced promoter activation (CAT activity) in fibroblast cultures from transgenic mice.
For data set [3] the following is noted: in vivo; cited from earlier work.
The subject of data set [4] is human elastin promoter. The experiment in a line: Transgenic mouse model of photoaging: human elastin promoter/CAT reporter activity in skin after UVB. To be noted: in vivo.

“And” between values parts separate entries of the source, which are not always exact repeats. Equal values may be shown once.

Consider `COc1c2occc2cc2ccc(=O)oc12` [8-MOP, 8-methoxypsoralen, reference compound], for which the CAT activity was 2.7 fold in the data set with human elastin promoter [1] (1 µg/ml 8-MOP and 0.5 J/cm^2 UVA, no Tempol, relative to controls); 9.0 fold with human elastin promoter [1] (1 µg/ml 8-MOP and 0.75 J/cm^2 UVA, no Tempol, relative to controls); 21.4 fold in the data set on human elastin promoter [1] (1 µg/ml 8-MOP and 1.0 J/cm^2 UVA, no Tempol, relative to controls); “failed to produce significant CAT activity” with human elastin promoter [1] (8-MOP alone (1 µg/ml), no UVA).
Take `CC1(C)CC(O)CC(C)(C)N1[O]` [Tempol, 4-hydroxy-2,2,6,6-tetramethyl-piperidinyloxy, free radical]: the “absorption in the UVA range” value in “Absorption spectrum” is “very little absorption”. In the data set on human elastin promoter [2], the “% Protection from UVB” value was 41 p<0.01% and 74 p<0.001% and 69 p<0.001% and 42 p<0.001%; the “further reduction of CAT activity by scavenging properties” value was 38%; the “reduction in CAT activity from cells treated with UVB alone” value is on record as about 6 fold. Besides, in the data set with human elastin promoter [1], the CAT activity was 1.5 fold and 1.2 fold and 2.0 fold; the “protection against the PUVA-induced increases in CAT activity” value was “failed to afford protection”. Moreover, the “detection in the blood following application” value in data set [3] is recorded as “undetectable”. For the same molecule, the CAT activity with human elastin promoter [4] was 1.7 fold and 3.3 fold.
